The subject of one assay is hippocampal neurons. Briefly: Neurite outgrowth from hippocampal neurons, stereological total neurite length per cell (ProcessLength). The settings on record: for neurite outgrowth (total neurite length per cell): low density culture.
In assay [1] the test system is primary hippocampal neurones. Briefly: Neurite outgrowth from single primary hippocampal neurones (length of longest neurite, image analysis). Format: cell-based, rat. The settings on record: for neurite outgrowth: substrate of plastic or fibronectin, 21 h.
Procedure: The system allows the examination of cell adhesion, cell migration and formation of processes in the treated cells leading to possibly neurite outgrowth. To investigate the latter further, neurite extension from single neurones may be studied. Cells are prepared as in the aggregation study and seeded on a substrate of plastic or fibronectin. The cells are then maintained for a suitable time, whereafter the neurite outgrowth is analysed by a measurement of the neurite extension, for example by a computer-assisted image analysis program. The mean length of the longest neurite of each cell was measured for neurites longer than 10 μM (see FIG. 2). In addition, the mean number of branchpoints per neurite and the mean number of neurites per cell were determined. NCAM Ig1-Ig2 ligands to be tested are added immediately before seeding the cells.
5000 cells/well, corresponding to approximately 4000 cells/cm^2, were seeded in 8 well LabTek Tissue Culture Chamber Slides with a growth surface of Permanox plastic (NUNC A/S, Denmark) or fibronectin (cocultures) and maintained for 20 h as described in Example 7 (1).
To investigate the stimulatory effect on neurite extension, cells were prepared as described and seeded on a substrate of plastic or fibronectin. Cells were then maintained for 21 h and neurite outgrowth was analysed by computer-assisted image analysis using the program Linelength. The mean length of the longest neurite of each cell was measured for neurites longer than 10 μM. In addition, the mean number of branchpoints per neurite and the mean number of neurites per cell were determined.
The target of a further assay is T1, NCAM Ig1 domain (Rattus norvegicus, UniProt P13596).
T1 construct: encoding amino acids 1-97 of rat NCAM; made in house; host or cells: Pichia pastoris strain His 4 GS-115 (pHIL-S1 plasmid)
Briefly: Plasmon surface resonance analysis of binding to NCAM Ig1. To be noted: dendrimer peptides immobilised on sensor chip CM5, Ig1 in solution, 25° C. How it is done:
Real-time biomolecular interaction analysis was performed using a BIAlite instrument (Pharmacia Biosensor AB, Sweden). […] Binding of Ig1 to dendrimer peptides: […] of Ig1 or Ig1I at the indicated concentrations were applied. The chip was regenerated by two […] pulses of 5 mM NaOH. Two independent experiments were performed.

The test system of the next assay is hippocampal cells. Briefly: Aggregate cultures of dissociated hippocampal cells (NCAM mediated cell adhesion). The settings on record: for aggregation of cells (number of cell aggregates): 24 h after seeding, higher number of aggregates reflects inhibition of aggregation; for inhibitory effect on aggregation of hippocampal cells: peptides at 180 μM (FIG. 19).
Assay [2] has as its system primary hippocampal neurones on monolayers of fibroblasts. Briefly: Neurite outgrowth in cocultures of neurones on fibroblast monolayers with or without NCAM-140. In kind it is cell-based, rat. To be noted: 0.54 or 5.4 μM. How it is done:
For cocultures, neurones were seeded on monolayers of fibroblasts, either L-cells or 3T3 cells with or without NCAM-B expression. Neurones were visualised using immunohistochemical staining for growth associated protein 43 kD (GAP43). Briefly, cells were fixed 30 min in 4% paraformaldehyde in phosphate buffered saline (PBS). The primary antibody was rabbit anti-GAP43 1:100 in PBS with 1% fetal bovine serum(FBS), 0.1% bovine serum albumin (BSA), 50 mM glycine, 0.02% NaN3, 2% saponine 1 h at room temperature or overnight at 4° C. The second antibody was biotinylated swine-anti-rabbit immunoglobulins 1:100 in PBS with 1% BSA 1 h at room temperature. The third “layer” was streptavidine coupled to FITC or horse radish peroxidase (HRP) 1:100 1 h at room temperature. Between layers, washings were performed 3×20 min in PBS with 1% BSA. Images of living or stained neurones were captured and analysed by the image analysis program Line Length created at the Protein Laboratory. Putative axons were identified as the longest neurite of each cell. Only neurites longer than […] were considered.
The mean length of neurites on NCAM-expressing fibroblasts was longer than the mean length of neurites on fibroblasts without NCAM expression.

Assay [3] deals with primary hippocampal neurones. Briefly: Cell proliferation by BrdU incorporation ELISA. In kind it is cell-based. How it is done: (§1) Cell proliferation was determined by incorporation of 5-bromo-2′-deoxyuridin in a cell proliferation ELISA system (Amersham Life Science) according to the procedure of the manufacturer. Primary hippocampal neurones were seeded in microtiter plates at a density of 33000 cells per well. […] However, the net effect on proliferation depended on the growth status of cell. […] The net effect depends on the growth status of the cells but under the proper circumstances, a stimulation of proliferation will result.
(In general: Uptake of a labelled nucleoside into DNA is a usual measure of proliferation.)

In a further assay the test system is neuroblastoma cells. Briefly: Proliferation of neuroblastoma cells. Format: cell-based.
In another assay the test system is PC12 cells. Briefly: Proliferation and neurite outgrowth of PC12 cells. In kind it is cell-based, rat. How it is done: The effect of the ligands on proliferation and cell growth was also tested. […] After this initial promotion of proliferation, the peptides stimulate differentiation by increasing neurite outgrowth and at the same time suppressing proliferation. Thus the net effect on proliferation depends on the growth status of the cells. An effect on proliferation has been shown for primary cell cultures from the hippocampus cells and cultures of rat pheochromocytoma cell line PC12 cells. Accordingly, the ligands stimulate neurite outgrowth from and/or proliferation of NCAM presenting cells.
as §1

Assay [4] has as its system primary hippocampal cells. Briefly: Cell growth by Cristal Violet staining. Format: cell-based. The settings on record: 0.8 μM, 48 h. The protocol: Cell growth is another way of monitoring proliferation of the cells. Primary hippocampal cells were seeded into 96 well microtiter culture plates (Nunc A/S) at a density of 20.000 or 40.000 per well in defined medium as described above. Cells were grown for 48 h, centrifuged in order to remove medium, fixed in 3.7% formaldehyde in PBS for 15 min and stained with 0.5% Cristal Violet in 20% methanol for 15 min. Stained cells were thoroughly washed with Milli Q purified water, thereafter residual dye was solubilised with 0.1 M sodium citrate in 50% ethanol pH 4.2 and absorbance measured at 550 nm.

The target in another assay is T2, NCAM (20-208) (Rattus norvegicus, UniProt P13596).
T2 construct: made in house
Briefly: Gel filtration chromatography of NCAM (20-208) dimer formation. A general note: In gel filtration, larger molecules generally elute earlier.

Entries after “also recorded” stand apart in the source; their conditions may differ. No end group written: not given here.

Here are results for 17 molecules from patent US7402560B2, “NCAM binding compounds” (priority 1998, dated 2008).

As for `COc1ccc2c(c1)CC[C@@H]1[C@@H]2CC[C@]2(C)[C@@H](NCCCCCCN3C(=O)C=CC3=O)CC[C@@H]12` [U-73122, reference compound], the “effect on Ig2-peptide induced neurite outgrowth” value in the assay on hippocampal neurons (3.6 μM Ig2-peptide dendrimer, Ig1 25 μM, α-FGFR 1:2000, CHD 200 μM, U-73122 5 μM (FIG. 23)) is on record as “completely abrogated”.
On to `COC(=O)/C=C/c1cc(O)ccc1O` [erbstatin analogue, reference compound], for which the “effect on the stimulatory effect of C3 on neurite extension” value (“effect on the stimulatory effect of C3” below) in assay [1] is “inhibit the stimulatory effect of C3 on neurite extension”.
Same read-out and setting: the same measure for `COc1ccc(CCN(C)CCCC(C#N)(c2ccc(OC)c(OC)c2)C(C)C)cc1OC` (stereo not shown) [verapamil, reference compound]: “inhibit the stimulatory effect of C3 on neurite extension”.
Take AKKERQRKDTQ (peptide fragment) [D3]: the “binding to the NCAM Ig1 domain” value with NCAM Ig1 domain is given as “bound the NCAM-Ig1 in solution; also recorded: bind to the NCAM Ig1 domain”. In addition, the neurite outgrowth entry in assay [1] is reported as “strongly stimulated neurite outgrowth; also recorded: increase in neurite outgrowth”. In addition, the “aggregation of cells (number of cell aggregates)” value in the assay with hippocampal cells is on record as “inhibited aggregation of cells; also recorded: higher number of cell aggregates”.
In the same order, the values of ARALNWGAKPK (peptide fragment) [D4] are “bound the NCAM-Ig1 in solution; also recorded: bind to the NCAM Ig1 domain”, “strongly stimulated neurite outgrowth; also recorded: increase in neurite outgrowth” and “inhibited aggregation of cells; also recorded: higher number of cell aggregates”.
ASKKPKRNIKA (peptide fragment) [C3]: the “binding to the NCAM Ig1 domain” value with NCAM Ig1 domain was “bound the NCAM-Ig1 in solution; also recorded: bind to the NCAM Ig1 domain”. Besides, in assay [1], the “concentration of maximal neuritogenic effect” value came out at 0.54 µM and the neurite outgrowth entry is recorded as “strongly stimulated neurite outgrowth; also recorded: increase in neurite outgrowth”. In assay [1] (0.54 μM), the branching of neurites result is listed as “strongly stimulated” and the “number of neurites per cell” value is reported as “strongly stimulated”. Also, in assay [1] (0.54 μM, plastic (FIG. 11)), the “length of the longest neurite” value is “strongly stimulated”. For the same molecule, in assay [2], the “NCAM-induced increase in neurite length on NCAM-140 expressing fibroblasts (LBN)” value is “no difference between the length of neurites on fibroblasts with or without NCAM expression” and the “neurite extension on fibroblasts without NCAM expression (LVN)” value is “neurite extension was stimulated”. The proliferation entry in assay [3] (higher concentrations, bell-shaped dose-response curve) is given as “inhibited proliferation”. The “proliferation of neuroblastoma cells” value in the assay on neuroblastoma cells is recorded as “promoted proliferation”. Besides, in the assay with PC12 cells, the “neurite outgrowth of PC12 cells” value is listed as “increased neurite outgrowth” and the “proliferation of PC12 cells” value is listed as “inhibitory effect on proliferation”. The cell growth entry in [4] is “increase cell growth”. Also, the “aggregation of cells (number of cell aggregates)” value in the assay on hippocampal cells is listed as “inhibited aggregation of cells; also recorded: higher number of cell aggregates”.
As to “C3d: Dendrimer of four C3 peptide monomers coupled to a backbone consisting of three lysines (ASKKPKRNIKA; also: dendrimer of four monomers coupled to a backbone of three lysines)”, in assay [2], the “NCAM-induced increase in neurite length on NCAM-140 expressing fibroblasts (LBN)” value was “inhibited” and the “neurite extension on fibroblasts without NCAM expression (LVN)” value is reported as “stimulated neurite out-growth”. Moreover, the “incorporation of BrdU (neuronal proliferation)” value in assay [3] (0.8 μM) is “increased incorporation of BrdU”. For the same molecule, the “aggregation of cells (number of cell aggregates)” value in the assay with hippocampal cells is listed as “most potent form”. Further, in the assay on hippocampal cells (24 h in culture, 1.07 μM and 2.15 μM), the “number of aggregates of primary hippocampal neurones” value is “increase in the number of aggregates formed”.
In the case of “D3-dendrimer: Four D3 peptide-monomers coupled to a backbone consisting of three lysines (AKKERQRKDTQ; also: dendrimer of four monomers coupled to a backbone of three lysines)”, the “aggregation of cells (number of cell aggregates)” value with hippocampal cells is “increased the number of aggregates formed”.
Same read-out and setting: the same measure for “D4-dendrimer: Four D4 peptide-monomers coupled to a backbone consisting of three lysines (ARALNWGAKPK; also: dendrimer of four monomers coupled to a backbone of three lysines)”: “increased the number of aggregates formed”.
Take GEISVGESKFFL (peptide fragment) [Ig1-p]: in the assay with hippocampal cells (24 h, 250 μg/ml (FIG. 24)), the aggregation of cells entry is reported as “inhibited aggregation of cells”. The neurite outgrowth result with hippocampal neurons (24 h, 5 μg/ml (FIG. 24)) was “promote neurite outgrowth”.
Regarding GRILARGEINFK (peptide fragment) [Ig2-p], the “aggregation of cells (number of cell aggregates)” value in the assay on hippocampal cells was “inhibited aggregation of cells”. Further, the “neurite outgrowth (total neurite length per cell)” value in the assay with hippocampal neurons (24 h) is recorded as “strongly stimulated neurite outgrowth”.
Take GSILASGESNFK (peptide fragment) [P2-3S]: in the assay with hippocampal cells (24 h), the “inhibitory effect on aggregation of hippocampal cells” value is “no inhibitory effect”. The “neurite outgrowth (total neurite length per cell)” value in the assay on hippocampal neurons (24 h) is “no neuritogenic effect; also recorded: no stimulatory effect”.
Taken in the same sequence, the figures for GSILASGSSNFK [P2-4S] were “only a slight inhibitory effect” and “no neuritogenic effect; also recorded: no stimulatory effect”.
Take “omega-conotoxin GVIA [reference compound]”: the “effect on the stimulatory effect of C3” value in [1] is “inhibit the stimulatory effect of C3 on neurite extension”.
Turning to pertussis toxin [reference compound], in assay [1], the “effect on the stimulatory effect of C3” value is “inhibit the stimulatory effect of C3 on neurite extension”.

B1: Ig1-2: Unmutated recombinant double Ig domain (Ig1-Ig2) of NCAM, NCAM (20-208) (protein)
chain: LQVDIVPSQGEISVGESKFFLCQVAGDAKDKDISWFSPNGEKLSPNQQRISVVWNDDDSSTLTIYNANIDDAGIYKCVVTAEDGTQSEATVNVKIFQKLMFKNAPTPQEFKEGEDAVIVCDVVSSLPPTIIWKHKGRDVILKKDVRFIVLSNNYLQIRGIKKTDEGTYRCEGRILARGEINFKDIQVIV
In the case of B1, the “dimer formation (elution in gel filtration)” value in the assay with NCAM (20-208) is listed as “elutes as a dimer”. The “neurite outgrowth (total neurite length per cell)” value in the assay with hippocampal neurons (24 h) is “only slight, if any, effect”.

B2: mutated double domain: NCAM (20-208) double Ig domain with mutations R192A, R196A and E198A (protein)
chain: LQVDIVPSQGEISVGESKFFLCQVAGDAKDKDISWFSPNGEKLSPNQQRISVVWNDDDSSTLTIYNANIDDAGIYKCVVTAEDGTQSEATVNVKIFQKLMFKNAPTPQEFKEGEDAVIVCDVVSSLPPTIIWKHKGRDVILKKDVRFIVLSNNYLQIRGIKKTDEGTYRCEGAILAAGAINFKDIQVIV
Take B2: the “neurite outgrowth (total neurite length per cell)” value with hippocampal neurons (24 h) is recorded as “inhibited in a dose dependent manner”.
